Reference: patent US10774083B2, “Heterocyclic amide compound” (TAKEDA PHARMACEUTICAL COMPANY LIMITED, priority 2016, dated 2020)

Assays:
[1] = system: human ovarian cancer cells A2780; test: proliferation inhibitory activity against human ovarian cancer cell A2780 (CellTiter-Glo); assay type: cell-based; conditions: A2780, 72 h, 1 μM test compound, 3 days of culture, read-out: proliferation inhibitory rate (%) of A2780 cells
Procedure: The proliferation inhibitory activity of the compound of the present invention against human ovarian cancer cell A2780 was evaluated by the following method.
Human ovarian cancer cells A2780 were seeded in a 384 well culture plate at 1000 cells in 30 μL of medium per well by using RPMI-1640 medium (Wako Pure Chemical Industries, Ltd.) containing 10% fetal bovine serum and penicillin/streptomycin. The next day, 10 μL of RPMI-1640 medium containing the test compound was added to the cells. After 3 days of culture, 20 μL of CellTiter-Glo Luminescent Cell Viability Assay solution (Promega) was added. The luminescence signal was measured using EnVision (PerkinElmer) and the inhibitory rate (%) of the test compound was calculated with a well free of seeding of cell as 100% inhibition.

[2] = biological target: T1, human PRS protein (His-Avi-hEPRS (998-1512)) (Homo sapiens, UniProt P07814); test: PRS inhibitory activity ([32P]pyrophosphate exchange enzyme assay); assay type: biochemical; conditions: 300 nM test compound; read-out: inhibitory rate (%) of PRS
T1 construct: to construct His-Avi-hEPRS (998-1512) expression plasmid; His tag (N); Avi tag (N); TEV cleavage site (ENLYFQG, then S; inferred from the forward primer hEPRS-TEV-NheF) (N); made in house; host or cells: E. coli BL21(DE3)
T1 sequence (P07814 998-1512 limits assumed): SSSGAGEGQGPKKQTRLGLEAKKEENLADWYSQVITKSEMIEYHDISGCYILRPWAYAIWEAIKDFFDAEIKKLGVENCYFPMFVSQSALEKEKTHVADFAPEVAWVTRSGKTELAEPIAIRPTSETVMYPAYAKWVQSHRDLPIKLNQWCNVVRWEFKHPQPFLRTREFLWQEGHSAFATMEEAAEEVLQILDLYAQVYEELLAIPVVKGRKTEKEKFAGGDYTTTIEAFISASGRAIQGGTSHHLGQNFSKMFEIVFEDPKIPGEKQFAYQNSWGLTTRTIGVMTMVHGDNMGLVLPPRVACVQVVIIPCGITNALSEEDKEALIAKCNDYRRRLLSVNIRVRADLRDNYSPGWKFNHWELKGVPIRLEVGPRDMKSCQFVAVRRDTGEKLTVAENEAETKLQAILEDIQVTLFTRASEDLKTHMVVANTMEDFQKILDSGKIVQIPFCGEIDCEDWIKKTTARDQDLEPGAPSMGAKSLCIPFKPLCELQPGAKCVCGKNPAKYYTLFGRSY
Procedure: The PRS inhibitory activity of the compounds of the present invention was evaluated by the following method.
An expression plasmid of Catalytic Domain of human EPRS was obtained by PCR using human skeletal muscle cDNA Library (Takara Bio Inc.) as a template and 2 kinds of Primers 5′-[…]-3′ (hEPRS-TEV-NheF) (SEQ ID NO: 1) and 5′-[…]-3′ (hEPRS-St-Not-R) (SEQ ID NO: 2). PCR was performed using PrimeStar GXL DNA Polymerase (Takara Bio Inc.) and included (1) 98° C., 1 min, (2) 35 cycles of 98° C., 10 sec, 65° C., 10 sec, 72° C., 1 min, and (3) reaction at 72° C., 1 min. This was cleaved with Nhe I and Not I (Takara Bio Inc.) and inserted using Ligation High (TOYOBO CO., LTD.) into the Nhe I/Not I site of pET21a (Novagen) with His-Avitag inserted thereinto. This was introduced into ECOS JM109 (NIPPON GENE CO., LTD.) to construct His-Avi-hEPRS (998-1512) expression plasmid.
Recombinant human PRS protein was prepared by transforming the His-Avi-hEPRS (998-1512) expression plasmid prepared above into ECOS Competent E. coli BL21(DE3) (NIPPON GENE CO., LTD.). Escherichia coli obtained by transformation was inoculated into 300 mL of LB medium (1% peptone, 0.5% yeast extract, 0.5% sodium chloride, 0.01% ampicillin) and cultured at 30° C. for 16 hr. The obtained culture medium was transferred into a jar culture tank charged with 6 L of the main fermentation medium (0.3% potassium dihydrogen phosphate, 0.6% disodium hydrogen phosphate, 0.1% ammonium chloride, 0.05% sodium chloride, 0.024% magnesium sulfate, 0.02% NEWPOL LB-625, 1.5% sorbitol, 1.5% casamino acid, 0.5% yeast extract, 0.01% ampicillin) and culturing was started at 37° C., quantity of airflow 5 L/min, stirring rotating speed 400 rpm. At the time point when the turbidity of the culture medium reached about 550 Klett units, the culture temperature was lowered to 16° C., isopropyl-β-D-thiogalactopyranoside (IPTG) was added to the final concentration 0.1 mM, and culturing was performed for another 16 hr to induce expression of human PRS. After completion of culturing, the culture medium was centrifuged at 5,000 rpm for 10 min. The obtained human PRS expressing Escherichia coli was suspended in a buffer containing 50 mM Tris-HCl (pH 8.0), 150 mM NaCl, 1 mM DTT, 5 U/ml Benzonase, 20 mM Imidazole and sonicated using Sonifier (BRANSON). The homogenate was centrifuged (33,000×G, 60 min, Beckman Coulter), the obtained supernatant was subjected to adsorption by passage through Ni-NTA Superflow (QIAGEN) column equilibrated in advance with 50 mM Tris-HCl (pH 8.0), 300 mM NaCl, 1 mM DTT, and elution was performed with a buffer containing 50 mM Tris-HCl (pH 8.0), 300 mM NaCl, 1 mM DTT, 250 mM Imidazole. Furthermore, gel filtration was performed using Superdex200 pg column equilibrated in advance with a buffer containing 50 mM Tris-HCl (pH 8.0), 150 mM NaCl, 1 mM DTT, 10% glycerol to give purified human PRS protein. The protein concentration was measured using BCA Protein Assay Kit (PIERCE) and BSA as the standard.
A test compound was dissolved in 5 μL of an assay buffer (50 mM Tris-HCl (pH 7.5), 20 mM KCl, 1 mM DTT, 0.01% Tween 20) and incubated for 60 min with 5 μL of 40 nM human PRS protein dissolved in the assay buffer containing 40 mM MgCl2. An enzyme reaction of the human PRS protein was started by adding 10 μL of a substrate solution containing 300 μM ATP, 160 μM L-Proline, 400 μM pyrophosphate, [^32P]pyrophosphate (PerkinElmer) prepared to 1 MBq/mL. After incubation at room temperature for 30 min, the reaction was discontinued by adding 50 μL of discontinuation/washing solution (1M HCl, 200 mM sodium pyrophosphate) to the reaction mixture. The reaction solution was transferred to a filter plate (Merck Millipore, Billerica, Mass.) previously added with 200 μL of charcoal solution (0.5% HCl solution containing 10% charcoal (w/v)). […]

Row | SMILES | inhibition at 0.3 µM [2] [%] | inhibition at 1 µM [1] [%]
1 | Cc1cc(N2CCC(C)(C)C2=O)cc(C(=O)NCc2cc(F)cc(-c3cnn(C)c3)c2)n1 [Example 165, 4-(3,3-dimethyl-2-oxopyrrolidin-1-yl)-N-(3-fluoro-5-(1-methyl-1H-pyrazol-4-yl)benzyl)-6-methylpyridine-2-carboxamide] | 100 | 75
2 | Cn1cc(-c2cc(F)cc(CNC(=O)c3nccc4nc(C5CCCC5)n(C)c34)c2)cn1 [Example 88, 2-cyclopentyl-N-(3-fluoro-5-(1-methyl-1H-pyrazol-4-yl)benzyl)-3-methyl-3H-imidazo[4,5-c]pyridine-4-carboxamide] | 101 | 99
3 | Cn1cc(-c2cc(F)cc(CNC(=O)c3nccc4nc(CC5CC5)[nH]c34)c2)cn1 [Example 126, 2-(cyclopropylmethyl)-N-(3-fluoro-5-(1-methyl-1H-pyrazol-4-yl)benzyl)-3H-imidazo[4,5-c]pyridine-4-carboxamide] | 98 | 56
4 | Cn1cc(-c2cc(F)cc(CNC(=O)c3nccc4nc(C5CCCC5)n(CC(N)=O)c34)c2)cn1 [Example 128, 3-(2-amino-2-oxoethyl)-2-cyclopentyl-N-(3-fluoro-5-(1-methyl-1H-pyrazol-4-yl)benzyl)-3H-imidazo[4,5-c]pyridine-4-carboxamide] | 102 | 97
5 | Cn1cc(-c2cc(F)cc(CNC(=O)c3nccc4nc(C5CCCC5)n(CC#N)c34)c2)cn1 [Example 131, 3-(cyanomethyl)-2-cyclopentyl-N-(3-fluoro-5-(1-methyl-1H-pyrazol-4-yl)benzyl)-3H-imidazo[4,5-c]pyridine-4-carboxamide] | 101 | 93
6 | Cn1cc(-c2cc(C#N)cc(CNC(=O)c3ncnc4nc(C5CCCC5)[nH]c34)c2)cn1 [Example 16, N-(3-cyano-5-(1-methyl-1H-pyrazol-4-yl)benzyl)-8-cyclopentyl-7H-purine-6-carboxamide] | 102 | 93
7 | Cn1cc(-c2cc(C#N)cc(CNC(=O)c3ncnc4nc(C5CCCO5)n(C)c34)c2)cn1 (stereo not drawn) [Example 23, N-(3-cyano-5-(l-methyl-1H-pyrazol-4-yl)benzyl)-7-methyl-8-(tetrahydrofuran-2-yl)-7H-purine-6-carboxamide] | 102 | 69
8 | Cn1cc(-c2cc(F)cc(CNC(=O)c3ncnc4nc(C5CCCC5)n(C)c34)c2)ccc1=O [Example 4, 8-cyclopentyl-N-(3-fluoro-5-(1-methyl-6-oxo-1,6-dihydropyridin-3-yl)benzyl)-7-methyl-7H-purine-6-carboxamide] | 101 | 99
9 | Cn1cc(-c2cc(F)cc(CNC(=O)c3ncnc4nc(C5CCCCO5)[nH]c34)c2)cn1 (centres unmarked) [Example 31, N-(3-fluoro-5-(1-methyl-1H-pyrazol-4-yl)benzyl)-8-(tetrahydro-2H-pyran-2-yl)-7H-purine-6-carboxamide] | 102 | 97
10 | Cn1cc(-c2cc(F)cc(CNC(=O)c3nccc4nc(C5CCCC5)n(C)c34)c2)nn1 [Example 91, 2-cyclopentyl-N-(3-fluoro-5-(1-methyl-1H-1,2,3-triazol-4-yl)benzyl)-3-methyl-3H-imidazo[4,5-c]pyridine-4-carboxamide] | 101 | 98
11 | O=C(NCc1cc(F)cc(-c2cnn(C3CC3)c2)c1)c1ncnc2nc(C3CCCC3)[nH]c12 [Example 14, 8-cyclopentyl-N-(3-(1-cyclopropyl-1H-pyrazol-4-yl)-5-fluorobenzyl)-7H-purine-6-carboxamide] | 100 | 97

More lines, main results first:

Row | inhibition at 0.3 µM [2] [%] | SMILES | inhibition at 1 µM [1] [%]
12 | 100 | Cc1cn(-c2cc(F)cc(CNC(=O)c3cc(N4CC[C@@](C#N)(C5CC5)C4=O)cc(C)n3)c2)cn1 [Example 228, 4-((3S)-3-cyano-3-cyclopropyl-2-oxopyrrolidin-1-yl)-N-(3-fluoro-5-(4-methyl-1H-imidazol-1-yl)benzyl)-6-methylpyridine-2-carboxamide] | 88
13 | 101 | Cc1cc(N2CC[C@@](C#N)(C3CC3)C2=O)nc(C(=O)NCc2cc(F)cc(-c3cnn(C)c3)c2)n1 [Example 238, 4-((3S)-3-cyano-3-cyclopropyl-2-oxopyrrolidin-1-yl)-N-(3-fluoro-5-(1-methyl-1H-pyrazol-4-yl)benzyl)-6-methylpyrimidine-2-carboxamide] | 95
14 | 101 | Cc1cc(CNC(=O)c2cc(N3CC[C@@](C#N)(C4CC4)C3=O)cc(C)n2)cc(-c2cnn(C)c2)c1 [Example 217, 4-((3S)-3-cyano-3-cyclopropyl-2-oxopyrrolidin-1-yl)-6-methyl-N-(3-methyl-5-(1-methyl-1H-pyrazol-4-yl)benzyl)pyridine-2-carboxamide] | 80
15 | 100 | Cc1cc(N2CCC3(CC3)C2=O)cc(C(=O)NCc2cc(F)cc(-c3cnn(C)c3)c2)n1 [Example 233, N-(3-fluoro-5-(1-methyl-1H-pyrazol-4-yl)benzyl)-6-methyl-4-(4-oxo-5-azaspiro[2.4]hept-5-yl)pyridine-2-carboxamide] | 70
16 | 101 | Cc1cc(N2CC[C@@](C#N)(C3CC3)C2=O)cc(C(=O)NCc2cc(F)cc(-c3cnn(C4CCOCC4)c3)c2)n1 [Example 182, 4-((3S)-3-cyano-3-cyclopropyl-2-oxopyrrolidin-1-yl)-N-(3-fluoro-5-(1-(tetrahydro-2H-pyran-4-yl)-1H-pyrazol-4-yl)benzyl)-6-methylpyridine-2-carboxamide] | 97
